The values below come from patent US20240197700A1, “Methods and Compositions for Treating Lysosomal Storage Disorders” (Sanford Health, priority 2021, published 2024).

The test has as its system NCL PNCs. In words: Autofluorescent storage material (ASM) in Batten disease primary neuronal cultures. The test is classed as cell-based, mouse. The protocol: Specific experimental details are included in figure legends. […] On DIV7, cells were treated with the following dyes: Hoechst 33342 (1:1000 dilution), LysoTrackerT™ Red DND-99 (1:10,000 dilution), fixed, and imaged. Mice were given vehicle or AF38469 (78.125 μg/ml, 3.125 μg/ml, 0.3125 μg/ml or 0.03125 μg/ml equating approximately to 250 μg/mouse/day, 10 μg/mouse/day, 1 μg/mouse/day, and […], respectively, given a mouse's daily water intake of approximately 3.2 ml per day) in drinking water beginning at wean. Body weight was measured bi-weekly, and a force actimeter test was performed on Cln2^R207X mice at 10 weeks of age. Body weight was measured every month for Cln3^Δex7/8 mice. At 11 and 16 weeks of age, respectively, Cln2^R207X and Cln3^Δex7/8 mice along with age matched wild type control mice were CO2 euthanized and intracardially perfused with PBS. Brains were collected and placed on a 1 mm sagittal brain block. Brains were sliced at the midline and 3 mm right of the midline. One hemisphere was fixed in 4% PFA and sectioned at 50 microns on a vibratome. Immunohistochemistry was performed on free-floating sections. For mitochondrial ATP synthase subunit C (SubC), glial fibrillary acidic protein (GFAP), and cluster of differentiation 68 (CD68) immunolabeling, primary antibodies included anti-SubC (Abcam, ab181243; 1:1000), anti-GFAP (Dako, Z0334; 1:5000), anti-CD68 (AbD Serotec, MCA1957; 1:2000), and secondary antibodies included anti-rabbit biotinylated (Vector Labs, BA-1000 1:1000) and anti-rat (Vector Labs, BA-9400 1:1000). Coverslips were mounted on slides using antifade-mounting media and were stored in the dark before imaging. Sections were imaged and analyzed using an Aperio Digital Pathology Slide Scanner (AT2) and associated software. Images were extracted from S1BF of the somatosensory cortex and the VPM/VPL of the thalamus, with multiple images taken of multiple tissues from each animal.
• An increase in percent area or total area of positive autofluorescent storage material (ASM) signal in untreated NCL MEFs or PNCs relative to age-matched, wild type MEFs or PNCs is considered an increase in the accumulation of autofluorescent storage material, reflecting disease-related lysosomal dysfunction. • A decrease in percent area or total area of positive autofluorescent storage material signal in AF38469 treated MEFs and PNCs relative to age-matched, vehicle treated MEFs and PNCs is considered a reduction in the accumulation of autofluorescent storage material and thus a decrease in disease-related lysosomal dysfunction. • LysoTracker™ is an acidophilic dye that labels lysosomes and accumulation increases with an increase in lysosome size or number. Cell and mouse models of lysosomal storage disorders often have increased accumulation of lysosomes and therefore have a stronger LysoTracker™ signal. […]

As to `Cc1cccc(NC(=O)c2ccc(C(F)(F)F)cc2C(=O)O)n1` [AF38469, 2-((6-methylpyridin-2-yl)carbamoyl)-5-(trifluoromethyl)benzoic acid], where the note is “40 nM, 400 nM, 4 μM, Cln1^R151X, Cln2^R207X, Cln3^Δex7/8, Cln6^nclf PNCs, DIV7”, the “accumulation of autofluorescent storage material (ASM)” value (“accumulation” for short) is given as “significantly reduced”. Besides, the ASM levels entry (Cln8^mnd PNCs, DIV7) is on record as “significantly increased”.

Take `CC[C@H](C)[C@H](N)C(=O)NCCN1CCOCC1` [LM11A-31, N-[2-(morpholin-4-yl)ethyl]-L-isoleucinamide]: the “accumulation” value (LM11A-31 100 nM, Cln6^nclf and Cln8^mnd PNCs) is recorded as “significantly reduced”; the “accumulation” value (LM11A-31 1 μM, Cln1^R151X PNCs) is “significantly reduced”; the “accumulation” value (LM11A-31 1 μM, Cln3^Δex7/8 PNCs) was “significantly reduced”; the “accumulation” value (LM11A-31 all treatment groups, Cln2^R207X PNCs) is listed as “significantly reduced”. Further, the ASM result (LM11A-31 varying doses, neurons of all tested NCLs) is reported as “significantly reduced”.

With semaglutide, the “autofluorescent storage material (ASM) signal” value (semaglutide 10 nM, 100 nM, 1 μM, Cln2^R207X and Cln6^nclf PNCs) is “significantly reduced”. In addition, the ASM levels entry by setting is: (semaglutide 10 nM, 100 nM, Cln3^Δex7/8 PNCs) “significantly reduced”; (semaglutide 10 nM, 1 μM, Cln1^R151X PNCs) “significantly reduced”; (semaglutide 10 nM, 1 μM, Cln8^mnd PNCs) “significantly reduced”; (semaglutide 100 nM, Cln1^R151X PNCs) “had no impact”; (semaglutide 100 nM, Cln8^mnd PNCs) “significantly elevated”; (semaglutide 1 μM, Cln3^Δex7/8 PNCs) “significantly elevated”.
